# Measurements taken from the NIST ThermoML archive (doi:10.1021/je400709f).
# Numbers after ± are expanded uncertainties.
# Assay: excess molar enthalpy (molar enthalpy of mixing); xn = mol fraction of the nth substance listed
# Conditions: 298.15 K, 101 kPa, Liquid, Calvet calorimetry
structure (smiles),measurement,setting,value
CCCCCCCC[n+]1ccn(C)c1.F[B-](F)(F)F [1-methyl-3-octylimidazolium tetrafluoroborate] + CCCO,excess molar enthalpy,x1 = 0.136,1.26 ± 0.031 kJ/mol
same,excess molar enthalpy,x1 = 0.138,1.28 ± 0.031 kJ/mol
same,excess molar enthalpy,x1 = 0.141,1.3 ± 0.031 kJ/mol
same,excess molar enthalpy,x1 = 0.144,1.32 ± 0.033 kJ/mol
same,excess molar enthalpy,x1 = 0.146,1.35 ± 0.033 kJ/mol
same,excess molar enthalpy,x1 = 0.149,1.37 ± 0.033 kJ/mol
same,excess molar enthalpy,x1 = 0.152,1.39 ± 0.033 kJ/mol
same,excess molar enthalpy,x1 = 0.156,1.42 ± 0.034 kJ/mol
same,excess molar enthalpy,x1 = 0.159,1.45 ± 0.034 kJ/mol
same,excess molar enthalpy,x1 = 0.163,1.47 ± 0.035 kJ/mol
same,excess molar enthalpy,x1 = 0.166,1.5 ± 0.036 kJ/mol
same,excess molar enthalpy,x1 = 0.169,1.52 ± 0.035 kJ/mol
same,excess molar enthalpy,x1 = 0.173,1.54 ± 0.035 kJ/mol
same,excess molar enthalpy,x1 = 0.176,1.56 ± 0.037 kJ/mol
same,excess molar enthalpy,x1 = 0.179,1.59 ± 0.037 kJ/mol
same,excess molar enthalpy,x1 = 0.183,1.61 ± 0.037 kJ/mol
same,excess molar enthalpy,x1 = 0.187,1.64 ± 0.038 kJ/mol
same,excess molar enthalpy,x1 = 0.19,1.66 ± 0.039 kJ/mol
same,excess molar enthalpy,x1 = 0.194,1.69 ± 0.038 kJ/mol
same,excess molar enthalpy,x1 = 0.199,1.72 ± 0.039 kJ/mol
same,excess molar enthalpy,x1 = 0.203,1.75 ± 0.04 kJ/mol
same,excess molar enthalpy,x1 = 0.208,1.78 ± 0.041 kJ/mol
same,excess molar enthalpy,x1 = 0.212,1.82 ± 0.042 kJ/mol
same,excess molar enthalpy,x1 = 0.217,1.85 ± 0.042 kJ/mol
same,excess molar enthalpy,x1 = 0.223,1.89 ± 0.042 kJ/mol
same,excess molar enthalpy,x1 = 0.228,1.93 ± 0.043 kJ/mol
same,excess molar enthalpy,x1 = 0.234,1.96 ± 0.044 kJ/mol
same,excess molar enthalpy,x1 = 0.24,2 ± 0.045 kJ/mol
same,excess molar enthalpy,x1 = 0.247,2.05 ± 0.046 kJ/mol
same,excess molar enthalpy,x1 = 0.253,2.09 ± 0.046 kJ/mol
same,excess molar enthalpy,x1 = 0.261,2.14 ± 0.047 kJ/mol
same,excess molar enthalpy,x1 = 0.268,2.19 ± 0.048 kJ/mol
same,excess molar enthalpy,x1 = 0.276,2.24 ± 0.049 kJ/mol
same,excess molar enthalpy,x1 = 0.285,2.29 ± 0.05 kJ/mol
same,excess molar enthalpy,x1 = 0.29,2.32 ± 0.051 kJ/mol
same,excess molar enthalpy,x1 = 0.296,2.35 ± 0.051 kJ/mol
same,excess molar enthalpy,x1 = 0.302,2.38 ± 0.052 kJ/mol
same,excess molar enthalpy,x1 = 0.309,2.42 ± 0.052 kJ/mol
same,excess molar enthalpy,x1 = 0.315,2.45 ± 0.053 kJ/mol
same,excess molar enthalpy,x1 = 0.322,2.48 ± 0.054 kJ/mol
same,excess molar enthalpy,x1 = 0.329,2.51 ± 0.054 kJ/mol
same,excess molar enthalpy,x1 = 0.337,2.54 ± 0.055 kJ/mol
same,excess molar enthalpy,x1 = 0.345,2.57 ± 0.055 kJ/mol
same,excess molar enthalpy,x1 = 0.353,2.6 ± 0.056 kJ/mol
same,excess molar enthalpy,x1 = 0.362,2.61 ± 0.056 kJ/mol
same,excess molar enthalpy,x1 = 0.371,2.63 ± 0.056 kJ/mol
same,excess molar enthalpy,x1 = 0.381,2.64 ± 0.056 kJ/mol
same,excess molar enthalpy,x1 = 0.391,2.65 ± 0.057 kJ/mol
same,excess molar enthalpy,x1 = 0.401,2.66 ± 0.057 kJ/mol
same,excess molar enthalpy,x1 = 0.413,2.66 ± 0.057 kJ/mol
same,excess molar enthalpy,x1 = 0.425,2.66 ± 0.057 kJ/mol
same,excess molar enthalpy,x1 = 0.437,2.66 ± 0.057 kJ/mol
same,excess molar enthalpy,x1 = 0.451,2.65 ± 0.057 kJ/mol
same,excess molar enthalpy,x1 = 0.465,2.64 ± 0.056 kJ/mol
same,excess molar enthalpy,x1 = 0.48,2.63 ± 0.056 kJ/mol
same,excess molar enthalpy,x1 = 0.496,2.61 ± 0.056 kJ/mol
same,excess molar enthalpy,x1 = 0.513,2.58 ± 0.055 kJ/mol
same,excess molar enthalpy,x1 = 0.532,2.55 ± 0.055 kJ/mol
same,excess molar enthalpy,x1 = 0.552,2.5 ± 0.054 kJ/mol
same,excess molar enthalpy,x1 = 0.56,2.48 ± 0.053 kJ/mol
same,excess molar enthalpy,x1 = 0.569,2.45 ± 0.053 kJ/mol
same,excess molar enthalpy,x1 = 0.578,2.42 ± 0.052 kJ/mol
same,excess molar enthalpy,x1 = 0.587,2.39 ± 0.051 kJ/mol
same,excess molar enthalpy,x1 = 0.596,2.36 ± 0.051 kJ/mol
same,excess molar enthalpy,x1 = 0.606,2.32 ± 0.05 kJ/mol
same,excess molar enthalpy,x1 = 0.616,2.28 ± 0.049 kJ/mol
same,excess molar enthalpy,x1 = 0.627,2.24 ± 0.048 kJ/mol
same,excess molar enthalpy,x1 = 0.638,2.19 ± 0.048 kJ/mol
same,excess molar enthalpy,x1 = 0.649,2.15 ± 0.047 kJ/mol
same,excess molar enthalpy,x1 = 0.66,2.1 ± 0.046 kJ/mol
same,excess molar enthalpy,x1 = 0.672,2.04 ± 0.044 kJ/mol
same,excess molar enthalpy,x1 = 0.685,1.98 ± 0.043 kJ/mol
same,excess molar enthalpy,x1 = 0.698,1.92 ± 0.042 kJ/mol
same,excess molar enthalpy,x1 = 0.711,1.85 ± 0.041 kJ/mol
same,excess molar enthalpy,x1 = 0.725,1.78 ± 0.039 kJ/mol
same,excess molar enthalpy,x1 = 0.74,1.7 ± 0.038 kJ/mol
same,excess molar enthalpy,x1 = 0.755,1.62 ± 0.036 kJ/mol
same,excess molar enthalpy,x1 = 0.771,1.53 ± 0.035 kJ/mol
same,excess molar enthalpy,x1 = 0.787,1.44 ± 0.033 kJ/mol
same,excess molar enthalpy,x1 = 0.804,1.34 ± 0.031 kJ/mol
same,excess molar enthalpy,x1 = 0.822,1.23 ± 0.029 kJ/mol
same,excess molar enthalpy,x1 = 0.841,1.11 ± 0.027 kJ/mol
same,excess molar enthalpy,x1 = 0.86,0.985 ± 0.025 kJ/mol
same,excess molar enthalpy,x1 = 0.881,0.847 ± 0.023 kJ/mol
same,excess molar enthalpy,x1 = 0.902,0.705 ± 0.02 kJ/mol
same,excess molar enthalpy,x1 = 0.925,0.547 ± 0.018 kJ/mol
same,excess molar enthalpy,x1 = 0.949,0.383 ± 0.017 kJ/mol
same,excess molar enthalpy,x1 = 0.974,0.199 ± 0.015 kJ/mol
CCCCCCCC[n+]1ccn(C)c1.F[B-](F)(F)F [1-methyl-3-octylimidazolium tetrafluoroborate] + CCCCO,excess molar enthalpy,x1 = 0.191,1.46 ± 0.034 kJ/mol
same,excess molar enthalpy,x1 = 0.195,1.49 ± 0.034 kJ/mol
same,excess molar enthalpy,x1 = 0.2,1.51 ± 0.035 kJ/mol
same,excess molar enthalpy,x1 = 0.204,1.54 ± 0.036 kJ/mol
same,excess molar enthalpy,x1 = 0.209,1.57 ± 0.036 kJ/mol
same,excess molar enthalpy,x1 = 0.214,1.61 ± 0.037 kJ/mol
same,excess molar enthalpy,x1 = 0.219,1.64 ± 0.037 kJ/mol
same,excess molar enthalpy,x1 = 0.223,1.66 ± 0.037 kJ/mol
same,excess molar enthalpy,x1 = 0.228,1.68 ± 0.037 kJ/mol
same,excess molar enthalpy,x1 = 0.233,1.7 ± 0.038 kJ/mol
same,excess molar enthalpy,x1 = 0.238,1.73 ± 0.038 kJ/mol
same,excess molar enthalpy,x1 = 0.243,1.75 ± 0.039 kJ/mol
same,excess molar enthalpy,x1 = 0.248,1.78 ± 0.039 kJ/mol
same,excess molar enthalpy,x1 = 0.254,1.8 ± 0.04 kJ/mol
same,excess molar enthalpy,x1 = 0.259,1.83 ± 0.04 kJ/mol
same,excess molar enthalpy,x1 = 0.266,1.86 ± 0.041 kJ/mol
same,excess molar enthalpy,x1 = 0.272,1.9 ± 0.042 kJ/mol
same,excess molar enthalpy,x1 = 0.279,1.93 ± 0.042 kJ/mol
same,excess molar enthalpy,x1 = 0.286,1.96 ± 0.043 kJ/mol
same,excess molar enthalpy,x1 = 0.293,2.01 ± 0.045 kJ/mol
same,excess molar enthalpy,x1 = 0.301,2.06 ± 0.046 kJ/mol
same,excess molar enthalpy,x1 = 0.309,2.11 ± 0.046 kJ/mol
same,excess molar enthalpy,x1 = 0.318,2.16 ± 0.047 kJ/mol
same,excess molar enthalpy,x1 = 0.328,2.21 ± 0.048 kJ/mol
same,excess molar enthalpy,x1 = 0.337,2.26 ± 0.049 kJ/mol
same,excess molar enthalpy,x1 = 0.348,2.32 ± 0.05 kJ/mol
same,excess molar enthalpy,x1 = 0.359,2.37 ± 0.051 kJ/mol
same,excess molar enthalpy,x1 = 0.371,2.42 ± 0.052 kJ/mol
same,excess molar enthalpy,x1 = 0.383,2.45 ± 0.053 kJ/mol
same,excess molar enthalpy,x1 = 0.392,2.48 ± 0.053 kJ/mol
same,excess molar enthalpy,x1 = 0.4,2.5 ± 0.054 kJ/mol
same,excess molar enthalpy,x1 = 0.41,2.53 ± 0.054 kJ/mol
same,excess molar enthalpy,x1 = 0.419,2.54 ± 0.054 kJ/mol
same,excess molar enthalpy,x1 = 0.429,2.56 ± 0.054 kJ/mol
same,excess molar enthalpy,x1 = 0.44,2.56 ± 0.054 kJ/mol
same,excess molar enthalpy,x1 = 0.451,2.56 ± 0.054 kJ/mol
same,excess molar enthalpy,x1 = 0.462,2.54 ± 0.054 kJ/mol
same,excess molar enthalpy,x1 = 0.474,2.53 ± 0.054 kJ/mol
same,excess molar enthalpy,x1 = 0.487,2.51 ± 0.054 kJ/mol
same,excess molar enthalpy,x1 = 0.501,2.49 ± 0.053 kJ/mol
same,excess molar enthalpy,x1 = 0.515,2.46 ± 0.053 kJ/mol
same,excess molar enthalpy,x1 = 0.53,2.43 ± 0.052 kJ/mol
same,excess molar enthalpy,x1 = 0.546,2.39 ± 0.051 kJ/mol
same,excess molar enthalpy,x1 = 0.563,2.34 ± 0.05 kJ/mol
same,excess molar enthalpy,x1 = 0.582,2.28 ± 0.049 kJ/mol
same,excess molar enthalpy,x1 = 0.601,2.22 ± 0.048 kJ/mol
same,excess molar enthalpy,x1 = 0.622,2.14 ± 0.046 kJ/mol
same,excess molar enthalpy,x1 = 0.644,2.05 ± 0.044 kJ/mol
same,excess molar enthalpy,x1 = 0.653,2.02 ± 0.044 kJ/mol
same,excess molar enthalpy,x1 = 0.663,1.98 ± 0.043 kJ/mol
same,excess molar enthalpy,x1 = 0.673,1.94 ± 0.042 kJ/mol
same,excess molar enthalpy,x1 = 0.683,1.9 ± 0.042 kJ/mol
same,excess molar enthalpy,x1 = 0.693,1.85 ± 0.041 kJ/mol
same,excess molar enthalpy,x1 = 0.704,1.79 ± 0.04 kJ/mol
same,excess molar enthalpy,x1 = 0.715,1.75 ± 0.038 kJ/mol
same,excess molar enthalpy,x1 = 0.727,1.7 ± 0.037 kJ/mol
same,excess molar enthalpy,x1 = 0.739,1.64 ± 0.036 kJ/mol
same,excess molar enthalpy,x1 = 0.751,1.58 ± 0.035 kJ/mol
same,excess molar enthalpy,x1 = 0.764,1.52 ± 0.034 kJ/mol
same,excess molar enthalpy,x1 = 0.777,1.46 ± 0.033 kJ/mol
same,excess molar enthalpy,x1 = 0.79,1.39 ± 0.031 kJ/mol
same,excess molar enthalpy,x1 = 0.804,1.31 ± 0.03 kJ/mol
same,excess molar enthalpy,x1 = 0.819,1.23 ± 0.029 kJ/mol
same,excess molar enthalpy,x1 = 0.834,1.15 ± 0.027 kJ/mol
same,excess molar enthalpy,x1 = 0.85,1.06 ± 0.025 kJ/mol
same,excess molar enthalpy,x1 = 0.866,0.968 ± 0.024 kJ/mol
same,excess molar enthalpy,x1 = 0.883,0.87 ± 0.023 kJ/mol
same,excess molar enthalpy,x1 = 0.9,0.754 ± 0.021 kJ/mol
same,excess molar enthalpy,x1 = 0.919,0.624 ± 0.02 kJ/mol
same,excess molar enthalpy,x1 = 0.938,0.477 ± 0.018 kJ/mol
same,excess molar enthalpy,x1 = 0.958,0.333 ± 0.017 kJ/mol
same,excess molar enthalpy,x1 = 0.978,0.172 ± 0.017 kJ/mol
